Here are results for 10 compounds from US9328138B2 (priority 2011, dated 2016).

Where a name gives a salt, the structure may show the parent alone.

As usually defined, the Ki is a dissociation constant, usually derived from enzyme kinetics or from competition with a known ligand.

Assay [1] addresses T1, HCV genotype 1b (BK) NS3 modified enzyme with a R155K mutation (Hepatitis C virus genotype 1b, UniProt P26663, R1181K).
T1 construct: HCV genotype 1b (BK) NS3 modified enzyme
The assay can be described thus: HCV NS3 protease time-resolved fluorescence (TRF) assay, genotype 1b R155K. The format is biochemical. The conditions noted are these: Ki 1b R155K. An outline of the steps:
(§1)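 IC50 values derive from 4-parameter fitting of TRF signal after a 6 h room-temperature cleavage of 25 nM peptide substrate by NS3/NS4A that had been pre-incubated 10 min with compound.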

Assay [2] deals with HCV NS3 protease genotype 3a (3A-1) (Hepatitis C virus genotype 3a, UniProt Q81258). The assay can be described thus: HCV NS3 protease time-resolved fluorescence (TRF) assay, genotype 3a. The format is biochemical. The conditions noted are these: Ki 3a. An outline of the steps: as §1
[3] abbreviates: genotype 1b (BK) NS3 R155K, single value.
Setting [4] is: first of two values printed in the cell (not explained).
[5] abbreviates: second of two values printed in the cell (not explained).

Consider `C=C[C@@H]1C[C@]1(NC(=O)[C@@H]1C[C@@H]2CN1C(=O)[C@H](C1CCCC1)NC(=O)O[C@@H]1CCC[C@H]1CC/C=C/Cc1c(nc3ccccc3c1OCCN1CCCC1=O)O2)C(=O)NS(=O)(=O)C1CC1` [Example 79, (3aR,7S,10S,12R,21E,24aS)-7-cyclo pentyl-N-{(1R,2S)-1-[(cyclopropylsulfonyl)carbamoyl]-2-ethenylcyclopropyl}-5,8-dioxo-19-[2-(2-oxopyrrolidin-1-yl)ethoxy]-1,2,3,3a,5,6,7,8,11,12,20,23,24,24a-tetradeca hydro-10H-9,12-methanocyclopenta[18,19][1,10,3,6] dioxadiaza cyclononadecino[11,12-b]quinoline-10-carboxamide], for which the Ki in assay [1] (setting [3]) was determined as 0.06 nM; in assay [2], 1.8 nM.

Take `C=C[C@@H]1C[C@]1(NC(=O)[C@@H]1C[C@@H]2CN1C(=O)[C@H](C(C)(C)C)NC(=O)O[C@@H]1C[C@H]1CCCCCc1c(nc3ccccc3c1OCCCN1CCC[C@@H]1C(N)=O)O2)C(=O)NS(=O)(=O)C1(C)CC1` [Example 208, (1aR,5S,8S,10R,22aR)-5-tert-butyl-17-{3-[(2R)-2-carbamoylpyrrolidin-1-yl]propoxy}-N-[(1R,2S)-2-ethenyl-1-{[(1-methylcyclopropyl)sulfonyl]carbamoyl}cyclopropyl]-3,6-dioxo-1,1a,3,4,5,6,9,10,18,19,20,21,22,22a-tetradecahydro-8H-7,10-methanocyclopropa[18,19][1,10,3,6] dioxadiazacyclononadecino[11,12-b] quinoline-8-carboxamide]: the Ki came to 0.11 nM in assay [1] (setting [3]) and 1 nM in assay [2].

Take `C=C[C@@H]1C[C@]1(NC(=O)[C@@H]1C[C@@H]2CN1C(=O)[C@H](C1CCCC1)NC(=O)O[C@@H]1CCC[C@H]1CC/C=C/Cc1c(nc3ccccc3c1OCCCN1CCCC(F)(F)C1)O2)C(=O)NS(=O)(=O)C1(C)CC1` [Example 83, (3aR,7S,10S,12R,21E,24aS)-7-cyclo pentyl-19-[3-(3,3-difluoropiperidin-1-yl)propoxy]-N-[(1R,s)-2-ethenyl-1-{[(1-methylcyclopropyl)sulfonyl]carbamoyl}cyclopropyl]-5,8-dioxo-1,2,3,3a,5,6,7,8,11,12,20,23,24,24a-tetradecahydro-10H-9,12-methanocyclopenta[18,19] [1,10,3,6]dioxadiazacyclononadecino [11,12-b]quinoline-10-carboxamide]: the Ki in assay [1] (setting [3]) worked out at 1.1 nM; in assay [2], 23 nM.

For `C=C[C@@H]1C[C@]1(NC(=O)[C@@H]1C[C@@H]2CN1C(=O)[C@H](C1CCCC1)NC(=O)O[C@@H]1CCC[C@H]1CC/C=C/Cc1c(nc3ccccc3c1OCCCNC(=O)OC(C)(C)C)O2)C(=O)NS(=O)(=O)C1CC1` [Example 84, tert-butyl (3-{[(3aR,7S,10S,12R,21E,24aS)-7-cyclopentyl-10-({(1R,2S)-1-[(cyclopropylsulfonyl)carbamoyl]-2-ethenylcyclopropyl}carbamoyl)-5,8-dioxo-1,2,3,3a,5,6,7,8,11,12, 20,23,24,24a-tetradecahydro-10H-9,12-methanocyclopenta[18,19][1,10,3,6]dioxadiazacyclononadecino [11,12-b]quinolin-19-yl]oxy}propyl)carbamate], the Ki in assay [1] (setting [3]) was 0.24 nM; in assay [2] it was 7.2 nM.

On to `C=C[C@@H]1C[C@]1(NC(=O)[C@@H]1C[C@@H]2CN1C(=O)[C@H](C(C)(C)C)NC(=O)O[C@@H]1CCC[C@H]1CCCCCc1c(nc3ccccc3c1OCCN1CCOCC1)O2)C(=O)NS(=O)(=O)C1(C)CC1` [Example 105, (3aR,7S,10S,12R,24aR)-7-tert-butyl-N-[(1R,2S)-2-ethenyl-1-{[(1-methyl-cyclopropyl)sulfonyl]carbamoyl}cyclopropyl]-19-[2-(morpholin-4-yl)ethoxy]-5,8-dioxo-1,2,3,3a, 5,6,7,8,11,12,20,21, 22,23,24,24a-hexadeca hydro-10H-9,12-methanocyclopenta [18,19][1,10,3,6]dioxadiazacyclo nonadecino[11,12-b]quinoline-10-carboxamide], for which the Ki in assay [1] (setting [3]) amounted to 0.43 nM; in assay [2] it was 14 nM.

As to `C=C[C@@H]1C[C@]1(NC(=O)[C@@H]1C[C@@H]2CN1C(=O)[C@H](C1CCCCC1)NC(=O)O[C@@H]1C[C@H]1CCCCCc1c(nc3ccccc3c1OC1CC3COCC(C1)N3C(=O)OC(C)(C)C)O2)C(=O)NS(=O)(=O)C1(C)CC1` (stereo partly drawn) [Example 287, tert-butyl 7-{[(1aR,5S,8S,10R,22aR)-5-cyclohexyl-8-{[(1R,2S)-2-ethenyl-1-{[(1-methylcyclopropyl)sulfonyl]carbamoyl}cyclopropyl]carbamoyl}-3,6-dioxo-1,1a,3,4,5,6,9,10,18,19,20,21,22,22a-tetradecahydro-8H-7,10-methanocyclopropa[18,19][1,10,3,6]dioxadiazacyclononadecino[11,12-b]quinolin-17-yl]oxy}-3-oxa-9-azabicyclo[3.3.1]nonane-9-carboxylate], the figures for the Ki in assay [1] (setting [4]), in assay [1] (setting [5]) and in assay [2] were 0.092 nM, 2.55 nM and 58 nM, respectively.

Take `C=C[C@@H]1C[C@]1(NC(=O)[C@@H]1C[C@@H]2CN1C(=O)[C@H](C(C)(C)C)NC(=O)O[C@@H]1C[C@H]1CCCCCc1c(nc3ccccc3c1OC1CC3CCC(C1)N3)O2)C(=O)NS(=O)(=O)C1(C)CC1` (single isomer, unassigned) [Example 279, trifluoroacetate]: the results for the inhibitory constant (Ki) in assay [1] (setting [4]), in assay [1] (setting [5]) and in assay [2] were 0.012 nM, 0.145 nM and 2.6 nM, respectively.

`C=C[C@@H]1C[C@]1(NC(=O)[C@@H]1C[C@@H]2CN1C(=O)[C@H](C1CCCC1)NC(=O)O[C@@H]1CCC[C@H]1CC/C=C/Cc1c(nc3ccccc3c1OCCCOC(=O)CN(C)C)O2)C(=O)NS(=O)(=O)C1CC1` [Example 74]: the Ki in assay [1] (setting [3]) is 0.1 nM; in assay [2] it was 1.3 nM.

`C=C[C@@H]1C[C@]1(NC(=O)[C@@H]1C[C@@H]2CN1C(=O)[C@H](C(C)(C)C)NC(=O)O[C@@H]1C[C@H]1CCCCCc1c(nc3ccccc3c1-c1cccnc1)O2)C(=O)NS(=O)(=O)C1(C)CC1` [Example 246, (1aR,5S,8S,10R,22aR)-5-tert-butyl-N-[(1R,2S)-2-ethenyl-1-{[(1-methylcyclopropyl)sulfonyl]carbamoyl}cyclopropyl]-3,6-dioxo-17-(pyridin-3-yl)-1,1a,3,4,5,6,9,10,18,19,20,21,22,22a-tetradecahydro-8H-7,10-methanocyclopropa[18,19][1,10,3,6]dioxadiazacyclononadecino[11,12-b]quinoline-8-carboxamide]: the Ki in assay [1] (setting [4]) amounted to 1.02 nM; in assay [1] (setting [5]), 1.14 nM; in assay [2] it was 211 nM.

Regarding `C=C[C@@H]1C[C@]1(NC(=O)[C@@H]1C[C@@H]2CN1C(=O)[C@H](C(C)(C)C)NC(=O)O[C@@H]1C[C@H]1CCCCCc1c(nc3ccccc3c1OC1CCN(CCOC)CC1)O2)C(=O)NS(=O)(=O)C1(C)CC1` [Example 225, (1aR,5S,8S,10R,22aR)-5-tert-butyl-N-[(1R,2S)-2-ethenyl-1-{[(1-methylcyclopropyl)sulfonyl]carbamoyl}cyclopropyl]-17-{[1-(2-methoxyethyl)piperidin-4-yl]oxy}-3,6-dioxo-1,1a,3,4,5,6,9,10,18,19,20,21,22,22a-tetradecahydro-8H-7,10-methanocyclopropa[18,19][1,10,3,6]dioxadiazacyclononadecino[11,12-b]quinoline-8-carboxamide], the figures for the Ki in assay [1] (setting [3]) and in assay [2] were 0.079 nM and 0.6 nM, respectively.
